Reference: patent US20110195900A1, “PEPTIDIC PTH RECEPTOR AGONISTS” (FERRING B.V., priority 2008, published 2011)
Non-standard residues stand in square brackets, D forms with d. Residues, ends and D or L forms follow the SMILES beside them. 1Nal = N[C@@H](Cc1cccc2ccccc12)C(=O)O; 2Nal = N[C@@H](Cc1ccc2ccccc2c1)C(=O)O; β3hI = CC[C@H](C)[C@H](N)CC(=O)O; β3hE = N[C@@H](CCC(=O)O)CC(=O)O; β3hF = N[C@H](CC(=O)O)Cc1ccccc1; hSer = N[C@@H](CCO)C(=O)O; Nle = CCCC[C@H](N)C(=O)O; β3hA = C[C@H](N)CC(=O)O; Aib = CC(C)(N)C(=O)O

Biological target: T1, human PTH-1 receptor (Homo sapiens, UniProt Q03431)
T1 construct: expressed in transfected cells; host or cells: HEK-293
T1 sequence (Q03431 27-593): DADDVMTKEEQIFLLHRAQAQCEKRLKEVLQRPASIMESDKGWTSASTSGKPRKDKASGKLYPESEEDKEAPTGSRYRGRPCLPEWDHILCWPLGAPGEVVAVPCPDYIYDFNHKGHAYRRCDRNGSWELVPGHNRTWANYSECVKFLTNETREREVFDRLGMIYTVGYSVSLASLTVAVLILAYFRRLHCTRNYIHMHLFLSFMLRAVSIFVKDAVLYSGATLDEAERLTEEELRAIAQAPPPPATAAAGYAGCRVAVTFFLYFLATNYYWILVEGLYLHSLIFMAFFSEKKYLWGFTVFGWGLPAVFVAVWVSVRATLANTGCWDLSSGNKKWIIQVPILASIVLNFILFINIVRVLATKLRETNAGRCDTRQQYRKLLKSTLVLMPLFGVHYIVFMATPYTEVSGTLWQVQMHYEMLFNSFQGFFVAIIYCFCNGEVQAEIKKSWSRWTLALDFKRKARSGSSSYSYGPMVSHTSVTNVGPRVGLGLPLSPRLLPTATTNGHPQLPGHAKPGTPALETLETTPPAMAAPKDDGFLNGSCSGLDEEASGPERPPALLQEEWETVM
Test: Reporter gene assay (CRE-luciferase) for agonist activity in transiently transfected HEK-293 cells
Assay type: cell-based
Conditions: for hPTHR-2/hPTHR-1: Table 3, selectivity for hPTH-1 receptor over hPTH-2 receptor
Outline: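 HEK-293 cells transiently transfected with SV40-driven human PTH-1 receptor and CRE-luciferase reporter, exposed to serial compound dilutions for 4-5 h, then lysed for luciferase readout; efficacy and EC50 by non-linear regression, PTH (1-34) as internal control, n≥3. Selectivity measured in analogous human PTH-2 receptor luciferase reporter assays.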

For `CCCC[C@H](NC(=O)[C@H](CO)NC(=O)[C@H](CC(N)=O)NC(=O)[C@H](CC(C)C)NC(=O)[C@H](Cc1c[nH]cn1)NC(=O)[C@H](CCCCN)NC(=O)CNC(=O)[C@H](CC(C)C)NC(=O)[C@H](CC(N)=O)NC(=O)[C@H](Cc1c[nH]cn1)NC(=O)[C@H](CCCC)NC(=O)[C@H](CC(C)C)NC(=O)[C@H](CCC(N)=O)NC(=O)[C@@H](NC(=O)[C@H](CCC(=O)O)NC(=O)[C@H](CO)NC(=O)[C@@H](NC(=O)[C@@H](N)CO)C(C)C)[C@@H](C)CC)C(=O)N[C@@H](CCC(=O)O)CC(=O)N[C@@H](CCCNC(=N)N)C(=O)N[C@H](C(=O)N[C@@H](CCC(=O)O)C(=O)N[C@@H](Cc1cccc2ccccc12)C(=O)N[C@@H](CC(C)C)C(=O)N[C@@H](CCCNC(=N)N)C(=O)N[C@@H](CCCCN)C(=O)N[C@@H](CC(C)C)C(=O)N[C@@H](CC(C)C)C(=O)N[C@@H](CCC(N)=O)C(=O)N[C@@H](CC(=O)O)C(=O)N[C@H](C(=O)N[C@@H](Cc1c[nH]cn1)C(=O)N[C@@H](CC(N)=O)C(=O)N[C@@H](Cc1ccccc1)C(N)=O)C(C)C)C(C)C` [SEQ ID NO: 20, [Nle^8,18, β-hGlu^19,1-Nal^23, Leu^27] hPTH (1-34)-NH2] (H-SVSEIQL[Nle]HNLGKHLNS[Nle][β3hE]RVE[1Nal]LRKLLQDVHNF-NH2; N-terminus assumed), the hPTHR-2/hPTHR-1 (ratio of EC50 values) was 91.

`CCCC[C@H](NC(=O)[C@H](CC(C)C)NC(=O)[C@H](CCC(N)=O)NC(=O)[C@@H](NC(=O)[C@H](CCC(=O)O)NC(=O)[C@H](CO)NC(=O)[C@@H](NC(=O)[C@@H](N)CO)C(C)C)[C@@H](C)CC)C(=O)N[C@@H](Cc1c[nH]cn1)C(=O)N[C@@H](CC(N)=O)C(=O)N[C@@H](CC(C)C)C(=O)NCC(=O)NC(C)(C)C(=O)N[C@@H](Cc1c[nH]cn1)C(=O)N[C@@H](CC(C)C)C(=O)N[C@@H](CC(N)=O)C(=O)N[C@@H](CO)C(=O)N[C@H](CC(=O)N[C@@H](CCC(=O)O)C(=O)N[C@@H](CCCNC(=N)N)C(=O)N[C@H](C(=O)N[C@@H](CCC(=O)O)C(=O)N[C@@H](Cc1cccc2ccccc12)C(=O)N[C@@H](CC(C)C)C(=O)N[C@@H](CCCNC(=N)N)C(=O)N[C@@H](CCCCN)C(=O)N[C@@H](CC(C)C)C(=O)N[C@@H](CC(C)C)C(=O)N[C@@H](CCC(N)=O)C(=O)N[C@@H](CC(=O)O)C(=O)N[C@H](C(=O)N[C@@H](Cc1c[nH]cn1)C(=O)N[C@@H](CC(N)=O)C(=O)N[C@@H](Cc1ccccc1)C(N)=O)C(C)C)C(C)C)[C@@H](C)CC` [SEQ ID NO: 33, [Nle^8, Aib^13, β-hIle^18,1-Nal^23, Leu^27] hPTH (1-34)-NH2] (H-SVSEIQL[Nle]HNLG[Aib]HLNS[β3hI]ERVE[1Nal]LRKLLQDVHNF-NH2) was tested, and the EC50 was 0.14 nM and the hPTHR-2/hPTHR-1 (ratio of EC50 values) was 481.

For `CCCC[C@H](NC(=O)[C@H](CC(C)C)NC(=O)[C@H](CCC(N)=O)NC(=O)[C@@H](NC(=O)[C@H](CCC(=O)O)NC(=O)[C@H](CO)NC(=O)[C@@H](NC(=O)C(C)(C)N)C(C)C)[C@@H](C)CC)C(=O)N[C@@H](Cc1c[nH]cn1)C(=O)N[C@@H](CCC(=O)O)C(=O)N[C@@H](CC(C)C)C(=O)NCC(=O)N[C@@H](CCCCN)C(=O)N[C@@H](Cc1c[nH]cn1)C(=O)N[C@@H](CC(C)C)C(=O)N[C@@H](CCCCN)C(=O)N[C@@H](CO)C(=O)N[C@H](CC(=O)N[C@@H](CCC(=O)O)C(=O)N[C@@H](CCCNC(=N)N)C(=O)N[C@H](C(=O)N[C@@H](CCC(=O)O)C(=O)N[C@@H](Cc1cccc2ccccc12)C(=O)N[C@@H](CC(C)C)C(=O)N[C@@H](CCCNC(=N)N)C(=O)N[C@@H](CCCCN)C(=O)N[C@@H](CC(C)C)C(=O)N[C@@H](CC(C)C)C(=O)N[C@@H](CCC(N)=O)C(=O)N[C@@H](CCC(=O)O)C(=O)N[C@H](C(=O)N[C@@H](Cc1c[nH]cn1)C(=O)N[C@@H](CCC(=O)O)C(=O)N[C@@H](CCCCN)C(N)=O)C(C)C)C(C)C)[C@@H](C)CC` [SEQ ID NO: 50, [Aib^1, Nle^8, Glu^10, Lys^16, β-hIle^18,1-Nal^23, Leu^27, Glu^30, Glu^33, Lys^34] hPTH(1-34)-NH2] (H-[Aib]VSEIQL[Nle]HELGKHLKS[β3hI]ERVE[1Nal]LRKLLQEVHEK-NH2; N-terminus assumed), the EC50 was 0.04 nM and the hPTHR-2/hPTHR-1 (ratio of EC50 values) was 22.

With `CCCC[C@H](NC(=O)[C@H](CC(C)C)NC(=O)[C@H](CCC(N)=O)NC(=O)[C@@H](NC(=O)[C@H](CCC(=O)O)NC(=O)[C@H](CO)NC(=O)[C@@H](NC(=O)C(C)(C)N)C(C)C)[C@@H](C)CC)C(=O)N[C@@H](Cc1c[nH]cn1)C(=O)N[C@@H](CC(N)=O)C(=O)N[C@@H](CC(C)C)C(=O)NCC(=O)N[C@@H](CCCCN)C(=O)N[C@@H](Cc1c[nH]cn1)C(=O)N[C@@H](CC(C)C)C(=O)N[C@@H](CC(N)=O)C(=O)N[C@H](CC(=O)N[C@@H](CCOC)C(=O)N[C@@H](CCC(=O)O)C(=O)N[C@@H](CCCNC(=N)N)C(=O)N[C@H](C(=O)N[C@@H](CCC(=O)O)C(=O)N[C@@H](Cc1cccc2ccccc12)C(=O)N[C@@H](CC(C)C)C(=O)N[C@@H](CCCNC(=N)N)C(=O)N[C@@H](CCCCN)C(=O)N[C@@H](CC(C)C)C(=O)N[C@@H](CC(C)C)C(=O)N[C@@H](CCC(N)=O)C(=O)N[C@@H](CC(=O)O)C(=O)N[C@H](C(=O)N[C@@H](Cc1c[nH]cn1)C(=O)N[C@@H](CC(N)=O)C(=O)N[C@@H](Cc1ccccc1)C(N)=O)C(C)C)C(C)C)Cc1ccccc1` [SEQ ID NO: 48, [Aib^1, Nle^8, β-hPhe^17, hSer(OMe)^18,1-Nal^23, Leu^27] hPTH-(1-34)-NH2] (H-[Aib]VSEIQL[Nle]HNLGKHLN[β3hF][hSer](Me)ERVE[1Nal]LRKLLQDVHNF-NH2) the EC50 was 0.1 nM and the hPTHR-2/hPTHR-1 (ratio of EC50 values) was 1152.

`CCCC[C@H](NC(=O)[C@H](CC(C)C)NC(=O)[C@H](CCC(N)=O)NC(=O)[C@@H](NC(=O)[C@H](CCC(=O)O)NC(=O)[C@H](CO)NC(=O)[C@@H](NC(=O)[C@@H](N)CO)C(C)C)[C@@H](C)CC)C(=O)N[C@@H](Cc1c[nH]cn1)C(=O)N[C@@H](CC(N)=O)C(=O)N[C@@H](CC(C)C)C(=O)NCC(=O)N[C@@H](CCCCN)C(=O)N[C@@H](Cc1c[nH]cn1)C(=O)N[C@@H](CC(C)C)C(=O)N[C@@H](CC(N)=O)C(=O)N[C@@H](CO)C(=O)N[C@@H](C)CC(=O)N[C@@H](CCC(=O)O)C(=O)N[C@@H](CCCNC(=N)N)C(=O)N[C@H](C(=O)N[C@@H](CCC(=O)O)C(=O)N[C@@H](Cc1ccc2ccccc2c1)C(=O)N[C@@H](CC(C)C)C(=O)N[C@@H](CCCNC(=N)N)C(=O)N[C@@H](CCCCN)C(=O)N[C@@H](CCCCN)C(=O)N[C@@H](CC(C)C)C(=O)N[C@@H](CCC(N)=O)C(=O)N[C@@H](CC(=O)O)C(=O)N[C@H](C(=O)N[C@@H](Cc1c[nH]cn1)C(=O)N[C@@H](CC(N)=O)C(=O)N[C@@H](Cc1ccccc1)C(N)=O)C(C)C)C(C)C` [SEQ ID NO: 52, [Nle^8, β-hAla^18,2-Nal^23] hPTH (1-34)-NH2] (H-SVSEIQL[Nle]HNLGKHLNS[β3hA]ERVE[2Nal]LRKKLQDVHNF-NH2) was tested, and the “Selectivity hPTHR-2/hPTHR-1” value (Table 4 comparison data, ratio of EC50 values) was 215.
